Laboratory results taken from ChEMBL document CHEMBL1134112, “[3H]MFZ 2-12: a novel radioligand for the dopamine transporter” (Bioorg Med Chem Lett, 2001).

Molecular target: Sodium-dependent dopamine transporter (Homo sapiens, UniProt Q01959)
Test: Ability to inhibit human dopamine uptake by the human dopamine transporter in EM4 cells stably infected with Flag HA-hDAT
Type: functional, cell-based

Chain of Sodium-dependent dopamine transporter (Q01959 whole entry): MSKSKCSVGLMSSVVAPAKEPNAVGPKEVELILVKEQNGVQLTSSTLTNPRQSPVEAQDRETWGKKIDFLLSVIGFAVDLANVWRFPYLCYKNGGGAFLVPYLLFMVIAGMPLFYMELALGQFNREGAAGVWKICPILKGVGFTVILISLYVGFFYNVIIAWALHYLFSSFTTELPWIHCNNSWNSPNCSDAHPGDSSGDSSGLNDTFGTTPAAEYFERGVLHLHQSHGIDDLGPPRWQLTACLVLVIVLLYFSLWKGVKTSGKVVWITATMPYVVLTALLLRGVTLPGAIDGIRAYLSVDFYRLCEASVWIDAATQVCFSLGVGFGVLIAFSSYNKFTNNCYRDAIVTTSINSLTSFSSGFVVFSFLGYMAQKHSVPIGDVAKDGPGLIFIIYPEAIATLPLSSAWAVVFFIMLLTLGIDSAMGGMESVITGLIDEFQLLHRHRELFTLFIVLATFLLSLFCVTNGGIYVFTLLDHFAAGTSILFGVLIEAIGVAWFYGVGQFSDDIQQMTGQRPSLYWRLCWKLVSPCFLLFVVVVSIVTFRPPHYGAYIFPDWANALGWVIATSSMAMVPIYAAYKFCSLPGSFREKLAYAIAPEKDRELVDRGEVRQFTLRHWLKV

Row | Compound | IC50 [nM]
1 | COC(=O)[C@@H]1C2CCC(C[C@@H]1c1ccc(Cl)c(Cl)c1)N2 (some centres not stated) | 1.4
2 | COC(=O)[C@@H]1C2CCC(C[C@@H]1c1ccc(Cl)c(Cl)c1)N2C (some centres not stated) | 1.1
